The text below walks through data of US12139520B2 (priority 2020, dated 2024).

Bridge positions count the residues as written; N and C are the ends. Square brackets hold non-standard residues; d marks the D form. Peptide text beside a SMILES is read from it. Hyp = O=C(O)[C@@H]1C[C@@H](O)CN1; Cit = NC(=O)NCCC[C@H](N)C(=O)O

Broadly, the EC50 is the concentration at which the effect is half-maximal.

A short description of data set [1]: Physical stability of peptide analogues (Thioflavin T fibrillation). In kind it is physicochemical. Conditions: maximum ThT signal normalized between hAMY maximum and buffer background; 40° C., shaking, four days; pH 7 per table title. Summed up:
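Peptides in 50 mM sodium acetate pH 4 or 50 mM sodium phosphate pH 7 were preincubated 1 h, mixed with 4 μM ThT, held at 40° C with 700 rpm shaking before each read. Fluorescence (ex 450/em 480 nm) every 10 min for four days; LOESS-smoothed maximum signal normalized in percent between hAMY and buffer.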

Another data set concerns the target T1, hAMY3 receptor (Homo sapiens, UniProt O60896+P30988).
T1 sequence (P30988 25-474): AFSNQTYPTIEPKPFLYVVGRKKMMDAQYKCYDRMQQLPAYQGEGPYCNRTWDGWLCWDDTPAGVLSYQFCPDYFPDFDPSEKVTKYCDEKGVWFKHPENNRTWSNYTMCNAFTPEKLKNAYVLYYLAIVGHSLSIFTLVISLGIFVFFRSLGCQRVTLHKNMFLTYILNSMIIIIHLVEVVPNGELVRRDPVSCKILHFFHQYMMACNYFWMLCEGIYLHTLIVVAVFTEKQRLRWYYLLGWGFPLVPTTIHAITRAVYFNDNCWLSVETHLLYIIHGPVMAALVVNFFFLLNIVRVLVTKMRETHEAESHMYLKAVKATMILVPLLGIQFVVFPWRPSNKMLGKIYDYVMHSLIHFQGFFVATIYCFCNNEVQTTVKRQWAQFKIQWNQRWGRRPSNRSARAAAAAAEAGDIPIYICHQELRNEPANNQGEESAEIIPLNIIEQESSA
T1 sequence (O60896 24-148 partner): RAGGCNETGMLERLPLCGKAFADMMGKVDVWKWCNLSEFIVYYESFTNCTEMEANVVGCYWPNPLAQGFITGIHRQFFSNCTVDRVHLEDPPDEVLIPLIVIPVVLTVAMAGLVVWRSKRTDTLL
Description: cAMP assay for in vitro receptor activation, hAMY3-R. In kind it is cell-based. Conditions: cAMP assay, hAMY3 receptor; read-out: hAMY3R EC50. The method in brief:
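Graded compound concentrations were applied for 30 min at room temperature to stably hAMY3-expressing cells in DPBS, 0.05% casein, 0.5 mM IBMX; cAMP detected by TR-FRET.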
Background: cAMP levels reflect the balance of adenylyl cyclase and phosphodiesterase activity.

Take `CC(C)C[C@H](NC(=O)[C@H](CCCNC(N)=O)NC(=O)[C@H](CCC(N)=O)NC(=O)[C@@H](NC(=O)[C@@H](NC(=O)[C@@H]1CSSC[C@H](NC(=O)CN)C(=O)N[C@@H](CCCNC(=N)N)C(=O)N[C@@H](Cc2ccccc2)C(=O)NCC(=O)N[C@@H]([C@@H](C)O)C(=O)N1)[C@@H](C)O)C(C)C)C(=O)N[C@@H](C)C(=O)N[C@@H](Cc1c[nH]cn1)C(=O)N[C@@H](Cc1ccccc1)C(=O)N[C@@H](CC(C)C)C(=O)N[C@@H](Cc1ccc(O)cc1)C(=O)N[C@@H](CCC(N)=O)C(=O)N[C@@H](Cc1ccccc1)C(=O)N[C@H](C(=O)N[C@@H](CC(=O)O)C(=O)N[C@@H](CCCCN)C(=O)N[C@@H](CC(=O)O)C(=O)N[C@@H](CCCCN)C(=O)N[C@@H](CC(=O)O)C(=O)N[C@@H](CC(N)=O)C(=O)N[C@H](C(=O)N[C@@H](C)C(=O)N1CCC[C@H]1C(=O)N[C@@H](CCCNC(=N)N)C(=O)N[C@H](C(=O)N[C@@H](CC(N)=O)C(=O)N[C@H](C(=O)NCC(=O)N1CCC[C@H]1C(=O)N[C@@H](CCC(N)=O)C(=O)NCC(=O)N[C@@H](Cc1ccc(O)cc1)C(N)=O)C(C)C)[C@@H](C)O)C(C)C)[C@@H](C)O` [compound 263] (H-GCRFGTCTVQ[Cit]LAHFLYQFTDKDKDNVAPRTNVGPQGY-NH2; disulfide 2-7; N-terminus assumed): the “Max ThT signal (%)” value in data set [1] is listed as 1.050%. The EC50 at hAMY3 receptor was determined as 5 pM.

Take `CC(C)C[C@H](NC(=O)[C@H](CCCNC(N)=O)NC(=O)[C@H](CCC(N)=O)NC(=O)[C@@H](NC(=O)[C@@H](NC(=O)[C@@H]1CSSC[C@H](NC(=O)CN)C(=O)N[C@@H](CCCNC(=N)N)C(=O)N[C@@H](Cc2ccccc2)C(=O)NCC(=O)N[C@@H]([C@@H](C)O)C(=O)N1)[C@@H](C)O)C(C)C)C(=O)N[C@@H](C)C(=O)N[C@@H](Cc1c[nH]cn1)C(=O)N[C@@H](Cc1ccccc1)C(=O)N[C@@H](CC(C)C)C(=O)N[C@@H](Cc1ccc(O)cc1)C(=O)N[C@@H](CCC(N)=O)C(=O)N[C@@H](Cc1ccccc1)C(=O)N[C@H](C(=O)N[C@@H](CC(=O)O)C(=O)N[C@@H](CCCCN)C(=O)N[C@@H](CC(=O)O)C(=O)N[C@@H](CCCCN)C(=O)N[C@@H](CC(=O)O)C(=O)N[C@@H](CC(N)=O)C(=O)N[C@H](C(=O)N[C@@H](C)C(=O)N1CCC[C@H]1C(=O)N[C@@H](CCCNC(=N)N)C(=O)N[C@H](C(=O)N[C@@H](CC(N)=O)C(=O)N[C@H](C(=O)NCC(=O)N[C@@H](CO)C(=O)N[C@@H](CC(N)=O)C(=O)N[C@H](C(=O)N[C@@H](Cc1ccc(O)cc1)C(N)=O)[C@@H](C)O)C(C)C)[C@@H](C)O)C(C)C)[C@@H](C)O` [compound 264] (H-GCRFGTCTVQ[Cit]LAHFLYQFTDKDKDNVAPRTNVGSNTY-NH2; disulfide 2-7): in data set [1], the “Max ThT signal (%)” value worked out at 1.350%. Also, the concentration for a half-maximal effect (EC50) at hAMY3 receptor was found to be 6 pM.

With `CC[C@H](C)[C@H](NC(=O)[C@H](CCC(N)=O)NC(=O)[C@H](Cc1c[nH]cn1)NC(=O)[C@H](C)NC(=O)[C@H](CC(C)C)NC(=O)[C@H](CCCNC(N)=O)NC(=O)[C@H](CCC(N)=O)NC(=O)[C@@H](NC(=O)[C@@H](NC(=O)[C@@H]1CSSC[C@H](NC(=O)CN)C(=O)N[C@@H](CCCNC(=N)N)C(=O)N[C@@H](Cc2ccccc2)C(=O)NCC(=O)N[C@@H]([C@@H](C)O)C(=O)N1)[C@@H](C)O)C(C)C)C(=O)N[C@@H](Cc1ccc(O)cc1)C(=O)N[C@@H](CCC(N)=O)C(=O)N[C@@H](Cc1ccccc1)C(=O)N[C@H](C(=O)N[C@@H](CC(=O)O)C(=O)N[C@@H](CCCCN)C(=O)N[C@@H](CC(=O)O)C(=O)N[C@@H](CCCCN)C(=O)N[C@@H](CC(=O)O)C(=O)N[C@@H](CC(N)=O)C(=O)N[C@H](C(=O)N[C@@H](C)C(=O)N1CCC[C@H]1C(=O)N[C@@H](CCCNC(=N)N)C(=O)N[C@H](C(=O)N[C@@H](CC(N)=O)C(=O)N[C@H](C(=O)NCC(=O)N1CCC[C@H]1C(=O)N[C@@H](CCC(N)=O)C(=O)NCC(=O)N1C[C@H](O)C[C@H]1C(N)=O)C(C)C)[C@@H](C)O)C(C)C)[C@@H](C)O` [compound 267] (H-GCRFGTCTVQ[Cit]LAHQIYQFTDKDKDNVAPRTNVGPQG[Hyp]-NH2; disulfide 2-7; N-terminus assumed), the “Max ThT signal (%)” value in data set [1] is recorded as 30.900%. Further, on hAMY3 receptor, the EC50 came to 7 pM.

On to `CC[C@H](C)[C@H](NC(=O)[C@H](CCC(N)=O)NC(=O)[C@H](Cc1c[nH]cn1)NC(=O)[C@H](C)NC(=O)[C@H](CC(C)C)NC(=O)[C@H](CCCNC(N)=O)NC(=O)[C@H](CCC(N)=O)NC(=O)[C@@H](NC(=O)[C@@H](NC(=O)[C@@H]1CSSC[C@H](NC(=O)CN)C(=O)N[C@@H](CCCNC(=N)N)C(=O)N[C@@H](Cc2ccccc2)C(=O)NCC(=O)N[C@@H]([C@@H](C)O)C(=O)N1)[C@@H](C)O)C(C)C)C(=O)N[C@@H](Cc1ccc(O)cc1)C(=O)N[C@@H](CCC(N)=O)C(=O)N[C@@H](Cc1ccccc1)C(=O)N[C@H](C(=O)N[C@@H](CC(=O)O)C(=O)N[C@@H](CCCCN)C(=O)N[C@@H](CC(=O)O)C(=O)N[C@@H](CCCCN)C(=O)N[C@@H](CC(=O)O)C(=O)N[C@@H](CC(N)=O)C(=O)N[C@H](C(=O)N[C@@H](C)C(=O)N1CCC[C@H]1C(=O)N[C@@H](CCCNC(=N)N)C(=O)N[C@H](C(=O)N[C@@H](CC(N)=O)C(=O)N[C@H](C(=O)NCC(=O)N1CCC[C@H]1C(=O)N[C@@H](CC(N)=O)C(=O)NCC(=O)N1C[C@H](O)C[C@H]1C(N)=O)C(C)C)[C@@H](C)O)C(C)C)[C@@H](C)O` [compound 270] (H-GCRFGTCTVQ[Cit]LAHQIYQFTDKDKDNVAPRTNVGPNG[Hyp]-NH2; disulfide 2-7; N-terminus assumed), for which the “Max ThT signal (%)” value in data set [1] came out at 25.450%. For the same compound, at hAMY3 receptor, the EC50 came out at 3 pM.

On to `CC[C@H](C)[C@H](NC(=O)[C@H](CCC(N)=O)NC(=O)[C@H](Cc1c[nH]cn1)NC(=O)[C@H](C)NC(=O)[C@H](CC(C)C)NC(=O)[C@H](CCCNC(N)=O)NC(=O)[C@H](CCC(N)=O)NC(=O)[C@@H](NC(=O)[C@@H](NC(=O)[C@@H]1CSSC[C@H](NC(=O)CN)C(=O)N[C@@H](CCCNC(=N)N)C(=O)N[C@@H](Cc2ccccc2)C(=O)NCC(=O)N[C@@H]([C@@H](C)O)C(=O)N1)[C@@H](C)O)C(C)C)C(=O)N[C@@H](Cc1ccc(O)cc1)C(=O)N[C@@H](CCC(N)=O)C(=O)N[C@@H](Cc1ccccc1)C(=O)N[C@H](C(=O)N[C@@H](CC(=O)O)C(=O)N[C@@H](CCCCN)C(=O)N[C@@H](CC(=O)O)C(=O)N[C@@H](CCCCN)C(=O)N[C@@H](CC(=O)O)C(=O)N[C@@H](CC(N)=O)C(=O)N[C@H](C(=O)N[C@@H](C)C(=O)N1CCC[C@H]1C(=O)N[C@@H](CCCNC(=N)N)C(=O)N[C@H](C(=O)N[C@@H](CC(N)=O)C(=O)N[C@H](C(=O)N[C@@H](CO)C(=O)N1CCC[C@H]1C(=O)N[C@@H](CC(N)=O)C(=O)NCC(=O)N[C@@H](Cc1ccc(O)cc1)C(N)=O)C(C)C)[C@@H](C)O)C(C)C)[C@@H](C)O` [compound 271] (H-GCRFGTCTVQ[Cit]LAHQIYQFTDKDKDNVAPRTNVSPNGY-NH2; disulfide 2-7; N-terminus assumed), for which the “Max ThT signal (%)” value in data set [1] came to 10.850%. The EC50 at hAMY3 receptor stood at 10 pM.

As for `CC[C@H](C)[C@H](NC(=O)[C@H](CCCCN)NC(=O)[C@@H](NC(=O)[C@H](CCCNC(=N)N)NC(=O)[C@@H]1CCCN1C(=O)[C@H](C)NC(=O)[C@@H](NC(=O)[C@H](CC(N)=O)NC(=O)[C@H](CC(=O)O)NC(=O)[C@H](CCCCN)NC(=O)[C@H](CC(=O)O)NC(=O)[C@H](CCCCN)NC(=O)[C@H](CC(=O)O)NC(=O)[C@@H](NC(=O)[C@H](Cc1ccccc1)NC(=O)[C@H](CCC(N)=O)NC(=O)[C@H](Cc1ccc(O)cc1)NC(=O)[C@@H](NC(=O)[C@H](CCC(N)=O)NC(=O)[C@H](Cc1c[nH]cn1)NC(=O)[C@H](C)NC(=O)[C@H](CC(C)C)NC(=O)[C@H](CCCNC(N)=O)NC(=O)[C@H](CCC(N)=O)NC(=O)[C@@H](NC(=O)[C@@H](NC(=O)[C@@H]1CSSC[C@H](NC(=O)CN)C(=O)N[C@@H](CCCNC(=N)N)C(=O)N[C@@H](Cc2ccccc2)C(=O)NCC(=O)N[C@@H]([C@@H](C)O)C(=O)N1)[C@@H](C)O)C(C)C)[C@@H](C)CC)[C@@H](C)O)C(C)C)[C@@H](C)O)C(=O)NCC(=O)N1CCC[C@H]1C(=O)N[C@@H](CCC(N)=O)C(=O)NCC(=O)N1C[C@H](O)C[C@H]1C(N)=O` [compound 274] (H-GCRFGTCTVQ[Cit]LAHQIYQFTDKDKDNVAPRTKIGPQG[Hyp]-NH2; disulfide 2-7; N-terminus assumed), in data set [1], the “Max ThT signal (%)” value came out at 26.800%. Also, on hAMY3 receptor, the EC50 came to 19 pM.
